Source: ChEMBL document CHEMBL2150958, “Tuned-Affinity Bivalent Ligands for the Characterization of Opioid Receptor Heteromers” (ACS Med Chem Lett, 2012)

How the values were obtained:
Mu-type opioid receptor = Mu-type opioid receptor (Mus musculus, UniProt P42866); test: Displacement of [3H]-DAMGO from mouse MOR expressed in HEK293 cells; type: cell-based
[1] = molecular target: T1, Opioid receptors; mu and delta (Mus musculus, UniProt P42866+P32300); test: Displacement of [3H]-DPDPE from mouse MOR/DOR expressed in HEK293 cells; type: cell-based
[2] = molecular target: Delta-type opioid receptor (Mus musculus, UniProt P32300); test: Displacement of [3H]-DPDPE from mouse DOR expressed in HEK293 cells; type: cell-based
[3] = molecular target: T1, Opioid receptors; mu and delta; test: Displacement of [3H]-DAMGO from mouse MOR/DOR expressed in HEK293 cells; type: cell-based
Mus musculus = organism: Mus musculus; test: Selectivity ratio of Ki for mouse DOR to Ki for mouse MOR/DOR

Chain of Mu-type opioid receptor (P42866 whole entry): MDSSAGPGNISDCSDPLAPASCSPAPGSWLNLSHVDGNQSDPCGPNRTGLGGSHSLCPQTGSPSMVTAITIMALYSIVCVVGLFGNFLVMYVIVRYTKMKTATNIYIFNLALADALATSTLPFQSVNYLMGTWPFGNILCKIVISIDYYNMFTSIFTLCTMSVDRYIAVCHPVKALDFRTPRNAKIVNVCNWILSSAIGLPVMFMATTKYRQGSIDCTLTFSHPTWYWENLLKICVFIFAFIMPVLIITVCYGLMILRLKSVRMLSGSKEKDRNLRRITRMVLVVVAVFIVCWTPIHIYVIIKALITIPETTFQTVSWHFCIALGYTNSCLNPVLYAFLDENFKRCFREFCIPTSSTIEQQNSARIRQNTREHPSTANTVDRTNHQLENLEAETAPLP
Chain of Delta-type opioid receptor (P32300 whole entry): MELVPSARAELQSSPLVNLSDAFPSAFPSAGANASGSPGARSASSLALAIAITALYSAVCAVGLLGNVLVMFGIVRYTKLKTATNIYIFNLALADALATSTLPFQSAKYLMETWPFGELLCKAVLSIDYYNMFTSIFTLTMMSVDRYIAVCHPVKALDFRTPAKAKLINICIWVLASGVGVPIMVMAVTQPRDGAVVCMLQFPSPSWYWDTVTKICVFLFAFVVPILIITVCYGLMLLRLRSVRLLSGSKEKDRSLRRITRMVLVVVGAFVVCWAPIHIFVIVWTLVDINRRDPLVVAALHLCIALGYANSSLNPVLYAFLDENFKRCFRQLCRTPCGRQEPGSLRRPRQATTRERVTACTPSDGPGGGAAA

SMILES	Ki (Mu-type opioid receptor)	pKi [1]	Ki [2]	pKi [3]	Ratio Ki (Mus musculus)
Cl.Oc1ccc2c3c1O[C@H]1c4[nH]c5ccccc5c4C[C@@]4(O)[C@@H](C2)N(CC2CC2)CC[C@]314 [NALTRINDOLE HYDROCHLORIDE]	16.6 nM	8.26	2.63 nM	8.46	
CNC(=O)COCC(=O)NCCCCCNC(=O)COCC(=O)N[C@H]1CC[C@@]2(O)[C@H]3Cc4ccc(O)c5c4[C@@]2(CCN3C)[C@H]1O5	22.4 nM			6.9	
CNC(=O)COCC(=O)NCCCCCNC(=O)COCC(=O)N[C@@H]1CC[C@@]2(O)[C@H]3Cc4ccc(O)c5c4[C@@]2(CCN3CC2CC2)[C@H]1O5	0.324 nM	7.79	30.9 nM	8.38	
Nc1cccc2c3c([nH]c12)[C@@H]1Oc2c(OCCc4ccccc4)ccc4c2[C@@]12CCN(CC1CC1)[C@H](C4)[C@]2(O)C3	120 nM	7.46	91.2 nM	6.94	
CN1CC[C@]23c4c5ccc(O)c4O[C@H]2[C@@H](NC(=O)COCC(=O)NCCCCCNC(=O)COCC(=O)Nc2cccc4c6c([nH]c24)[C@@H]2Oc4c(OCCc7ccccc7)ccc7c4[C@@]24CCN(CC2CC2)[C@H](C7)[C@]4(O)C6)CC[C@@]3(O)[C@H]1C5.Cl	9.77 nM	7.34	204 nM	8.21	
CCN(CC)C(=O)c1ccc(C(=C2CCNCC2)c2c(C)cc(NC(=O)COCC(=O)NCCCCCNC(=O)COCC(=O)NC)cc2C)cc1.Cl	550 nM	5.78	2880 nM	5.92	
CCN(CC)C(=O)c1ccc(C(=C2CCNCC2)c2c(C)cc(NC(=O)COCC(=O)NCCCCCNC(=O)COCC(=O)N[C@@H]3CC[C@@]4(O)[C@H]5Cc6ccc(O)c7c6[C@@]4(CCN5CC4CC4)[C@H]3O7)cc2C)cc1.Cl	< 1 nM	8.6	20 nM	> 9	10
